Assay: Henry solubility constant Hcp at 298.15 K (mol/(m3 Pa))
Settings: reference: Cetin et al. (2006)

Q: Which “Henry solubility constant Hcp” value does the source give for `Clc1ccc(C(c2ccc(Cl)cc2)C(Cl)(Cl)Cl)cc1` [1,1,1-trichloro-2,2-bis-(4-chlorophenyl)-ethane] here?
A: 0.9

Q: For `Clc1ccc(C(c2ccc(Cl)cc2)C(Cl)Cl)cc1` [1,1-dichloro-2,2-bis-(4-chlorophenyl)-ethane], which “Henry solubility constant Hcp” value is on record?
A: 0.91

Q: With `ClC(Cl)=C(c1ccc(Cl)cc1)c1ccc(Cl)cc1` [1,1-dichloro-2,2-bis-(4-chlorophenyl)-ethene] as the compound, how does the “Henry solubility constant Hcp” value read?
A: 0.16

Q: For `ClC1=C(Cl)[C@]2(Cl)[C@H]3[C@H]([C@@H]4C=C[C@H]3C4)[C@@]1(Cl)C2(Cl)Cl` [aldrin], which “Henry solubility constant Hcp” value is on record?
A: 0.022

Q: For `CCOP(=S)(OCC)Oc1nc(Cl)c(Cl)cc1Cl` [chlorpyrifos], which “Henry solubility constant Hcp” value is on record?
A: 0.22

Q: For `ClC1=C(Cl)[C@]2(Cl)[C@@H]3[C@@H](Cl)[C@@H](Cl)C[C@@H]3[C@@]1(Cl)C2(Cl)Cl` [cis-chlordane], which “Henry solubility constant Hcp” value is on record?
A: 0.15

Q: Which “Henry solubility constant Hcp” value does the source give for `ClC1=C(Cl)C2(Cl)[C@H]3C(Cl)C(Cl)C(Cl)[C@H]3C1(Cl)C2(Cl)Cl` (stereo partly drawn) [cis-nonachlor] here?
A: 1.4

Q: With `ClC1=C(Cl)[C@]2(Cl)[C@@H]3[C@@H]4C[C@@H]([C@H]5O[C@@H]45)[C@@H]3[C@@]1(Cl)C2(Cl)Cl` [dieldrin] as the compound, how does the “Henry solubility constant Hcp” value read?
A: 0.92

Q: For `ClC1=C(Cl)[C@]2(Cl)[C@@H]3[C@H]4C[C@H]([C@@H]5O[C@H]45)[C@@H]3[C@@]1(Cl)C2(Cl)Cl` [endrin], which “Henry solubility constant Hcp” value is on record?
A: 1.8

Q: Which “Henry solubility constant Hcp” value does the source give for `ClC1=C(Cl)C2(Cl)C3C(Cl)C=CC3C1(Cl)C2(Cl)Cl` (stereo not given) [heptachlor] here?
A: 0.019

Q: For `ClC1=C(Cl)C2(Cl)C3C4OC4C(Cl)C3C1(Cl)C2(Cl)Cl` (stereo not given) [heptachlorepoxide], which “Henry solubility constant Hcp” value is on record?
A: 0.5

Q: Which “Henry solubility constant Hcp” value does the source give for `ClC1=C(Cl)[C@]2(Cl)[C@H]3[C@H](Cl)[C@@H](Cl)C[C@H]3[C@@]1(Cl)C2(Cl)Cl` [trans-chlordane] here?
A: 0.063

Q: Which “Henry solubility constant Hcp” value does the source give for `ClC1=C(Cl)C2(Cl)C3C(Cl)C(Cl)C(Cl)C3C1(Cl)C2(Cl)Cl` (stereo not drawn) [trans-nonachlor] here?
A: 0.088

Q: Which “Henry solubility constant Hcp” value does the source give for `ClC1C(Cl)C(Cl)C(Cl)C(Cl)C1Cl` (stereo not drawn) [α-1,2,3,4,5,6-hexachlorocyclohexane] here?
A: 3

Q: For `ClC1C(Cl)C(Cl)C(Cl)C(Cl)C1Cl` (stereo not given) [γ-1,2,3,4,5,6-hexachlorocyclohexane], which “Henry solubility constant Hcp” value is on record?
A: 3.9
